Assay results as given in patent EP4628081A1, “COMPOSITION FOR REMOVING HELICOBACTER PYLORI COMPRISING ZASTAPRAZAN OR PHARMACEUTICALLY ACCEPTABLE SALT THEREOF” (priority 2022, dated 2024).
Values after ≈ are worked out from the molar mass of the structure shown. Read-outs that look alike come from different tables or passages of the source.

Columns and labels:
[1] = system: Helicobacter pylori SS1 (mouse colonizing strain); assay: MIC and MBC by microdilution method according to CLSI guideline; assay type: cell-based; details: 72 h, 3 days; for MBC: spotted on antibiotic-free BHI agar, unit from method b141/b236, table prints none
Protocol: Helicobacter pylori SS1 (mouse colonizing strain): A strain known as Sydney strain. The strain is CagA-positive and VacA-positive and has been confirmed to infect and colonize in C57BL/6 mice. The strain is used in animal testing.
(§1) The medium was prepared using Müller-Hinton broth (MH, Difco Inc., Sparks, MD, USA) [w/7% […] (Sigma CO., LTD., St. Louis, USA), 0.4% isovitalex (BBL Inc., Sparks, MD, USA)].
An antibiotic susceptibility testing was performed using the microdilution method according to the CLSI guideline. Two-fold serial dilution was performed in 12 steps in a 48-well plate with the highest concentration of 128 µg/mL for amocixillin and clarithromycin and 256 µg/mL for omeprazole. The bacteria were inoculated into wells containing only medium without antibiotics to prepare the positive control group, and the wells containing only medium without antibiotics or inoculated bacteria were used as the negative control group. The concentration range of the test substances, zastaprazan (JP-1366) and fexuprazan, was determined through preliminary experiments. H. pylori stored in a deep freezer (-70 °C or lower) was thawed, inoculated onto BHI agar (w/7% laked horse blood and 0.4% isovitalex), cultured at 37 °C under microaerobic conditions of 5% O2, 10% CO2, and 85% N2 gas for three days, and then subcultured onto a fresh medium. The cultured bacteria were harvested, suspended in PBS, inoculated into each well at a concentration of 5 x 10^5 CFU/mL, and then cultured at 37 °C under microaerobic conditions of 5% O2, 10% CO2, and 85% N2 gas for three days. The lowest concentration at which no bacterial growth was observed was determined as the MIC. […] The lowest concentration at which no bacteria growth occurred was determined as the MBC. […]
(§2) All tests were performed in duplicate, and the results were determined by conducting the experiments in triplicate.

[2] = system: Helicobacter pylori 26695 (ATCC700329); assay: as above; assay type: cell-based; details: ATCC700329, 72 h
Protocol: Helicobacter pylori 26695 (ATCC700329): A strain isolated from a patient known to be associated with the development of gastric cancer. The strain is cytotoxin associated gene (CagA)-positive and vacuolating cytotoxin (VacA)-positive and has a well-known genetic background, so it is mainly used for research purposes.
as §1
An antibiotic susceptibility testing was performed using the microdilution method according to the CLSI guideline. […] The concentration range of the test substances, zastaprazan (JP-1366) and fexuprazan, was determined through preliminary experiments. […] The lowest concentration at which no bacterial growth was observed was determined as the MIC. […] The lowest concentration at which no bacteria growth occurred was determined as the MBC.
To determine the MIC, visual inspection was performed and the absorbance was measured at 600 nm, and the growth was confirmed based on the absorbance of the negative control group containing only the medium. […]
as §2

[3] = system: Helicobacter pylori (ATCC43504); assay: as above; assay type: cell-based; details: ATCC43504, 72 h
Protocol: Helicobacter pylori (ATCC43504): Type strain for antibiotic susceptibility testing according to the Clinical & Laboratory Standards Institute (CLSI) guidelines.
as §1
An antibiotic susceptibility testing was performed using the microdilution method according to the CLSI guideline. Two-fold serial dilution was performed in 12 steps in a 48-well plate with the highest concentration of 128 µg/mL for amocixillin and clarithromycin and 256 µg/mL for omeprazole. The bacteria were inoculated into wells containing only medium without antibiotics to prepare the positive control group, and the wells containing only medium without antibiotics or inoculated bacteria were used as the negative control group. The concentration range of the test substances, zastaprazan (JP-1366) and fexuprazan, was determined through preliminary experiments. H. pylori stored in a deep freezer (-70 °C or lower) was thawed, inoculated onto BHI agar (w/7% laked horse blood and 0.4% isovitalex), cultured at 37 °C under microaerobic conditions of 5% O2, 10% CO2, and 85% N2 gas for three days, and then subcultured onto a fresh medium. The cultured bacteria were harvested, suspended in PBS, inoculated into each well at a concentration of 5 x 10^5 CFU/mL, and then cultured at 37 °C under microaerobic conditions of 5% O2, 10% CO2, and 85% N2 gas for three days. The lowest concentration at which no bacterial growth was observed was determined as the MIC. Thereafter, 10 µL of the culture solution from each well at different concentrations was spotted onto BHI agar (w/7% laked horse blood and 0.4% isovitalex) containing no antibiotics and cultured for three days at 37 °C under microaerobic conditions. The lowest concentration at which no bacteria growth occurred was determined as the MBC.
To determine the MBC, 10 µl of the culture solution from each well was spotted on a solid medium containing no antibiotics or test substances after the MIC determination, and bacterial growth was examined.
as §2

[4] = system: patients with erosive gastroesophageal reflux disease; assay: Phase 2 clinical trial, healing of mucosal breaks and symptom assessment; assay type: in vivo, human; details: within 24 hours and for seven days after administration; subject diary
Protocol: H. pylori testing was performed by 13C-urea breath test (13C-UBT), gastroscopy (Campylobacter-like organism test, CLO), or tissue biopsy to confirm H. pylori positivity/negativity. […] This clinical trial was a randomized, double-blind, active-controlled, multicenter, phase 2 clinical trial targeting patients with erosive gastroesophageal reflux disease. After the subjects gave written consent to participate in the clinical trial, a screening test was conducted. […] At this time, the subjects were stratified by grade (A, B, C, D) according to the LA classification system classified by upper gastrointestinal endoscopy. Randomly assigned subjects took the clinical trial drug once a day according to the assigned administration group for four weeks. After four weeks of administration of the clinical trial drug, the subjects visited the clinical trial institution to undergo an upper gastrointestinal endoscopy to assess whether they were healed. Healed subjects underwent a Safety Follow-Up (F/U) two weeks later, and unhealed subjects were administered the clinical trial drug for additional four weeks (a total of 8 weeks of administration) and visited the clinical trial institution to undergo an upper gastrointestinal endoscopy. […]

[5] = Solubility observed during MIC analysis; assay type: physicochemical; details: in MIC medium; formation of suspension, interference in visual/absorbance analysis
Description: Referring to Table 4 below, since the solubility of zastaprazan (JP-1366) was low, the MIC analysis was difficult (poor solubility, formation of suspension, interference in visual/absorbance analysis), so the inhibitory effect on the H. pylori strains was confirmed through the MBC index.

[6] = system: Helicobacter pylori SS1 (mouse colonizing strain); assay: Clarithromycin MIC and MBC by microdilution with or without JP-1366 in the medium; assay type: cell-based; details: medium containing zastaprazan (JP1366) at 1/2 MIC concentration vs MH medium
Protocol: Helicobacter pylori SS1 (mouse colonizing strain): Known as Sydney strain, the strain is CagA-positive and VacA-positive, and has been confirmed to colonize mice C57BL/6 and is used in animal experiments.
Zastaprazan (JP-1366) was supplied as a product prepared at a concentration of 10 mM in dimethyl sulfoxide (DMSO) solvent, and clarithromycin was prepared at a concentration of 5 mg/mL in DMSO solvent.
An antibiotic susceptibility test was performed by the microdilution method according to CLSI guideline.
The antibiotic susceptibility test was performed using MH broth (7% horse serum, 0.4% IsoVitalex), and the susceptibility test medium for zastaprazan (JP-1366) was prepared at this time. […] Using the medium prepared in this way, clarithromycin was serially diluted 2-fold and in 16 steps, with a maximum concentration of 16 µg/mL. Wells containing only the medium without antibiotics were used as a negative control group, and wells inoculated only with the bacteria in the medium without antibiotics were used as a positive control group. […] The lowest concentration of the sample at which no bacterial growth was observed was determined as the MIC. […] The lowest concentration at which no bacterial growth was observed was determined as the minimum bactericidal concentration(MBC). […]

Question: What does the source list for CC1(C)S[C@@H]2[C@H](NC(=O)[C@H](N)c3ccc(O)cc3)C(=O)N2[C@H]1C(=O)O [Amoxicillin, Amoxicillin Trihydrate]?
Answer: MBC [1]: 0.25 µg/mL; MBC ([2]; strain 26695, spotted on antibiotic-free BHI agar, 3 days, unit from method b141/b236, table prints none, read-out: MBC): 0.032 µg/mL; MBC ([3]; strain 43504, spotted on antibiotic-free BHI agar, 3 days, unit from method b141/b236, table prints none, read-out: MBC): 0.032 µg/mL

Question: For Cc1cccc(C)c1CNc1cc(C(=O)N2CCC2)cn2c(C)c(C)nc12.O=C(O)CC(O)(CC(=O)O)C(=O)O [JP-1366, azetidin-1-yl{8-[(2,6-dimethylbenzyl)amino]-2,3-dimethylimidazo[1,2-a]pyridin-6-yl}methanone citrate salt], which “evaluation of all symptoms (heartburn, acid reflux, heartburn/acid reflux)” value [4] is on record?
Answer: all symptoms tended to be ameliorated

Question: And the solubility [5]?
Answer: low

Question: For COc1ccc2[nH]c([S+]([O-])Cc3ncc(C)c(OC)c3C)nc2c1 (stereo not shown) [Omeprazole], which MBC [3] is on record?
Answer: 64 µg/mL (≈ 185 µM)

Question: What about the MIC [3] of the same compound?
Answer: 32 µg/mL (≈ 92.6 µM)

Question: With CC[C@H]1OC(=O)[C@H](C)[C@@H](O[C@H]2C[C@@](C)(OC)[C@@H](O)[C@H](C)O2)[C@H](C)[C@@H](O[C@@H]2O[C@H](C)C[C@H](N(C)C)[C@H]2O)[C@](C)(OC)C[C@@H](C)C(=O)[C@H](C)[C@@H](O)[C@]1(C)O [Clarithromycin] as the compound, how does the “MBC lowered by” value [6] read?
Answer: about 1/2

Question: And the MIC ([1]; 37 °C, microaerobic, unit from method b141, table prints none)?
Answer: 0.032 µg/mL (≈ 0.0428 µM)

Question: What about the MBC [1] of the same compound?
Answer: 0.125 µg/mL (≈ 0.167 µM)

Question: What about the MBC [2] of the same compound?
Answer: 0.125 µg/mL (≈ 0.167 µM)

Question: What about the MBC [3] of the same compound?
Answer: 0.063 µg/mL (≈ 0.0842 µM)

Question: And the MIC [3]?
Answer: 0.032 µg/mL (≈ 0.0428 µM)
